For assay [1], the system named is itch-related behavior induced by substance P. The assay is described as follows: Inhibitory effect on the itch-related behavior of mice induced by substance P. In kind it is in vivo, BALB/c strain male mice. The settings on record: frequency counted for 60 minutes, vs 0.5% CMC-Na group. As for the experimental part: It has been reported that in the lesion part of a patient with atopic dermatitis, there are observed an increase in nerve fiber containing substance P (SP), a nerve peptide (Tobin D et al., J Allergy Clin immunol, 90, 613-22(1992)) and an increase in reactivity with SP (Gianetti A et al. Br J Dermatol, 121, 681-8(1989)). On the other hand, it has been reported that when SP is administered to the cervicodorsal part of a mouse, itch-related behavior is induced (Kuraishi Y et al. Eur J Pharmacol, 275, 229-33(1995)) and is suppressed by a certain antiallergic agent (Inagaki N et al. Eur J Pharmacol, 400, 73-9(2000)). Therefore, in order to verify the itch-inhibiting effect of the uracil derivatives of the present invention, the itch-inhibiting effect was evaluated by employing the effect of the uracil derivatives on itch-related behavior induced by SP, as an indication. Each of BALB/c strain male mice was previously transferred to a cage for observation and allowed to acclimate to an observation environment, and then SP was subcutaneously administered (200 μg/mouse) to the cervicodorsal part of the mouse. After the administration, the mouse was returned to the cage for observation and the frequency of its itch-related behavior was measured for 60 minutes after the return. Each test drug was suspended in a 0.5% CMC-Na solution and orally administered in a dose of 10 mg/kg 30 minutes before the administration of SP. For evaluating the itch-inhibiting effect, the inhibition rate of the test drug was calculated as an indication as follows by comparison with a group treated with a 0.5% CMC-Na solution. As a comparative example, an antiallergic agent Oxatomide, which is considered as an agent having itch-inhibiting effect, was administered in a dose of 3 times that of the test drug (30 mg/kg). [formula]

Assay [2] relates to dermatitis induced by picryl chloride (type IV allergic inflammation). The assay is described as follows: Inhibitory effect on dermatitis induced by picryl chloride, test compound applied on the ear. In kind it is in vivo, ICR strain male mice. The settings on record: 0.04 ml of 0.25% (w/v) test compound/acetone on the ear; ear thickness 24 hours after the causing; relative to 2.5% (w/v) comparative compound 1 (10 times the amount). As for the experimental part:
In order to verify the inflammation-inhibiting effect of the uracil derivative of the present invention, its effect on dermatitis induced by picryl chloride, a model of typical type IV allergic inflammation was evaluated by adopting the method of Asherson et al. (Immunology, 15, 405 (1968)). On the abdominal skin of each of ICR strain male mice was applied 0.1 ml of a 7% (w/v) picryl chloride/acetone solution to induce sensitization. On the seventh days after the sensitization, 0.02 ml of a 1% (w/v) picryl chloride/acetone solution was applied on the ear of each mouse to cause an allergic reaction. […] Twenty-four hours after the causing, the thickness of the ear was measured and the dermatitis-inhibiting effect of the test compound was evaluated by employing the difference between the thickness of the ear 24 hours after the causing and that before the causing as an indication. […]
From the difference of the ear thickness before and after the causing of the allergic reaction in the case of each group, the relative degree of efficacy of the test compound in the inhibition of ear enlargement was calculated according to the following equation by comparison with a group treated with the comparative compound in an amount of 10 times that of the test compound: [formula]

Assay [3] has the same test system. The assay is described as follows: Inhibitory effect on dermatitis induced by picryl chloride, oral administration. It counts as in vivo, ICR strain male mice. The settings on record: oral 10 mg/kg in 0.5% CMC-Na one hour before the causing; relative to comparative compound 1 oral 100 mg/kg. As for the experimental part:
The effect on the animal model in Evaluation Example 1 was verified by oral administration. ICR strain male mice were sensitized in the same manner as in Evaluation Example 1, and on the seventh days after the sensitization, 0.02 ml of a 1% (w/v) picryl chloride/acetone solution was applied on the ear of each mouse to cause an allergic reaction. Each test compound was suspended in a 0.5% CMC-Na solution and orally administered in a dose of 10 mg/kg one hour before the causing of the allergic reaction. As a comparative example, the above-mentioned comparative compound 1 disclosed in Japanese Patent No. 3093170 was orally administered in a dose of 100 mg/kg to make a comparison.

Setting [4] is: oral 10 mg/kg 30 minutes before SP (200 μg/mouse s.c.).

Turning to `Cc1c(O)c(C)c(C(=O)Nc2c(N)n(-c3cccc4ccccc34)c(=O)n(C)c2=O)c2c1CCC(C)(C)O2` [Example 2, 6-amino-5-(6-hydroxy-2,2,5,7-tetramethyl-chroman-8-carboxamide)-3-methyl-1-(1-naphthyl)uracil], in assay [1] (setting [4]), the “Inhibition rate (%) of itch-related behavior” value (“Inhibition rate (%)” for short) worked out at 71%.

In the case of `Cc1cc(OCC(=O)Nc2c(N)n(-c3cccc4ccccc34)c(=O)n(C)c2=O)c(C)c(C)c1O` [Example 4, 6-amino-5-[(4-hydroxy-2,3,5-trimethyl)phenoxy]acetamide-3-methyl-1-(1-naphthyl)uracil], the “Degree of efficacy (relative degree of efficacy in the inhibition of ear enlargement)” value in assay [2] was 0.9.

For `Cc1cc(OCC(=O)Nc2c(N)n(-c3cccc4ccccc34)c(=O)n(C)c2=O)c(C)c(C)c1N` [Example 5, 6-amino-5-[(4-amino-2,3,5-trimethyl)phenoxy]acetamide-3-methyl-1-(1-naphthyl)uracil], the “Degree of efficacy (relative degree of efficacy in the inhibition of ear enlargement)” value in assay [2] is on record as 1.1. In addition, in assay [1] (setting [4]), the “Inhibition rate (%)” value is 53%.

With `CCn1c(=O)c(NC(=O)c2c(C)c(O)c(C)c3c2OC(C)(C)CC3)c(N)n(-c2cccnc2OC)c1=O` [Example 10, 6-amino-3-ethyl-5-(6-hydroxy-2,2,5,7-tetramethylchroman-8-carboxamide)-1-(2-methoxypyridin-3-yl)uracil], in assay [3], the “Degree of efficacy (relative degree of efficacy in the inhibition of ear enlargement)” value was determined as 1.6.

Regarding `CCCCn1c(=O)c(NC(=O)c2c(C)c(O)c(C)c3c2OC(C)(C)C3)c(N)n(-c2cccc3ccccc23)c1=O` [Example 14, 6-amino-3-butyl-5-(6-hydroxy-2,2,5,7-tetramethyl-3-oxaindan-4-carboxamide)-1-(1-naphthyl)uracil], in assay [3], the “Degree of efficacy (relative degree of efficacy in the inhibition of ear enlargement)” value came to 1.0.

For the molecule `CCn1c(=O)c(NC(=O)c2c(C)c(O)c(C)c3c2OC(C)(C)C3)c(N)n(-c2cccc3c2CCC3)c1=O` [Example 20, 6-amino-3-ethyl-5-(6-hydroxy-2,2,5,7-tetramethyl-3-oxaindan-4-carboxamide)-1-(4-indanyl)uracil], the “Degree of efficacy (relative degree of efficacy in the inhibition of ear enlargement)” value in assay [3] amounted to 1.2.

For the molecule `Cc1c(O)c(C)c(C(=O)Nc2c(N)n(-c3cccc4c3CCCC4)c(=O)n(C)c2=O)c2c1CC(C)(C)O2` [Example 22, 6-amino-3-methyl-5-(6-hydroxy-2,2,5,7-tetramethyl-3-oxaindan-4-carboxamide)-1-(5,6,7,8-tetrahydro-1-naphthyl)uracil], the “Degree of efficacy (relative degree of efficacy in the inhibition of ear enlargement)” value in assay [3] was 1.3.

Consider `Cc1cccc(-n2c(N)c(NC(=O)COc3cc(C)c(N)c(C)c3C)c(=O)n(C)c2=O)c1C` [Example 29, 6-amino-5-[(4-amino-2,3,5-trimethyl)phenoxy]acetamide-3-methyl-1-(2,3-dimethylphenyl)uracil], for which the “Degree of efficacy (relative degree of efficacy in the inhibition of ear enlargement)” value in assay [3] was 1.4.

On to `CNc1c(NC(=O)COc2cc(C)c(N)c(C)c2C)c(=O)n(C)c(=O)n1-c1cccc(C)c1C` [Example 30, 6-methylamino-5-[(4-amino-2,3,5-trimethyl)phenoxy]acetamide-3-methyl-1-(2,3-dimethylphenyl)uracil], for which the “Degree of efficacy (relative degree of efficacy in the inhibition of ear enlargement)” value in assay [3] was determined as 1.6.

As for `O=c1[nH]c2ccccc2n1CCCN1CCN(C(c2ccccc2)c2ccccc2)CC1` [Oxatomide, reference compound], the “Inhibition rate (%)” value in assay [1] (oral 30 mg/kg 30 minutes before SP (200 μg/mouse s.c.)) came out at 39%.

These data come from patent publication US20060094737A1, “Novel uracil derivatives and medicinal use thereof” (Sumitomo Pharmaceuticals CO. Ltd., priority 2002, published 2006).
